Laboratory results published in patent US9371290B2, “Pyridazinone compounds” (BIOTIE THERAPIES CORPORATION, priority 2011, dated 2016).

Assays:
[1] = target: T1, Recombinant human VAP-1 SSAO (Homo sapiens, UniProt Q16853); test: In vitro inhibition of VAP-1 SSAO activity (coupled colorimetric method, benzylamine substrate); type: biochemical; conditions: CHO cell lysate, 1 mM benzylamine, read-out: VAP-1 SSAO Inhibitory activity IC50
T1 construct: made in house; host or cells: Chinese Hamster Ovary (CHO) cells; clarified NP40 cell lysate used directly
T1 sequence (Q16853 1-763): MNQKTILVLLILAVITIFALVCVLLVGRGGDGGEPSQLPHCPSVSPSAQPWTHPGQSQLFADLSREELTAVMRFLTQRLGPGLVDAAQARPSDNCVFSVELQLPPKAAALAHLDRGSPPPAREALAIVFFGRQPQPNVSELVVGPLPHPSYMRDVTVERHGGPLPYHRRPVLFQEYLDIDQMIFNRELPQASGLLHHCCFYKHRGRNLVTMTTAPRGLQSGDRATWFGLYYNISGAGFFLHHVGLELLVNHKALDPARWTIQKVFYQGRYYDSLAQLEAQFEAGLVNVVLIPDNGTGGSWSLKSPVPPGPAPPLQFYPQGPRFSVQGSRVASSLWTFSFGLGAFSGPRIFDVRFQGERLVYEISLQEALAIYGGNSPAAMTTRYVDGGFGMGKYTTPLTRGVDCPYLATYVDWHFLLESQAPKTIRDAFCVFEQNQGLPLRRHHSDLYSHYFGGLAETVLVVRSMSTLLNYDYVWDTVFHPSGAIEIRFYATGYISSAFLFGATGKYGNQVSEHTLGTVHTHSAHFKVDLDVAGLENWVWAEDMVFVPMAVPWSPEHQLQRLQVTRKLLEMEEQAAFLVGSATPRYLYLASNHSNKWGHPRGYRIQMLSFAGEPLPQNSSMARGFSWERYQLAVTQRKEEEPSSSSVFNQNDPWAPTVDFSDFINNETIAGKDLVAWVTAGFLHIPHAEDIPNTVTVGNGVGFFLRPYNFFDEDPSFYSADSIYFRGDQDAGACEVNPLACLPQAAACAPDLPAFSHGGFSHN
Description: VAP-1 SSAO activity was measured using the coupled colorimetric method essentially as described for monoamine oxidase and related enzymes (Holt, A., et al., Anal. Biochem. 244:384-392 (1997)). Recombinant human VAP-1 SSAO expressed in Chinese Hamster Ovary (CHO) cells was used as a source of VAP-1 SSAO for activity measurements. Native CHO cells have negligible SSAO activity. These cells and their culture have previously been described (Smith, D. J., et al., J. Exp. Med. 188:17-27 (1998)). A cell lysate was prepared by suspending approximately 3.6×10^8 cells in 25 ml lysis buffer (150 mM NaCl, 10 mM Tris-Base pH 7.2, 1.5 mM MgCl2, 1% NP40) and incubating at 4° C. overnight on a rotating table. The lysate was clarified by centrifugation at 18 000 g for 5 min at room temperature and the supernatant used directly in the assay. The VAP-1 SSAO assay was performed in 96 well microtitre plates as follows. To each well was added a predetermined amount of inhibitor if required. The amount of inhibitor varied in each assay but was generally at a final concentration of between 1 nM and 50 μM. Controls lacked inhibitor. The inhibitor was in a total volume of 20 μl in water. The following reagents were then added. 0.2 M potassium phosphate buffer pH 7.6 to a total reaction volume of 200 μl, 50 μl of freshly made chromogenic solution containing 1 mM vanillic acid, 500 μM 4-aminoantipyrine and 8 U/ml horseradish peroxidase and an amount of CHO cell lysate containing VAP-1 SSAO that caused a change of 0.6 A490 per h. This was within the linear response range of the assay. The plates were incubated for 30 min at 37° C. and the background absorbance measured at 490 nm using a Wallac Victor II multilabel counter. To initiate the enzyme reaction 20 μl 10 mM benzylamine (final concentration=1 mM) was added and the plate incubated for 1 h at 37° C. The increase in absorbance, reflecting VAP-1 SSAO activity, was measured at 490 nm. Inhibition was presented as percent inhibition compared to control after correcting for background absorbance and IC50 values calculated using GraphPad Prism.

Total MAO = test: Total rat MAO activity (rat liver mitochondrial preparation, tyramine substrate); type: biochemical
Description: Rat MAO was prepared from rat liver by rinsing the 1 g liver sample several times in 14 ml KCl-EDTA-solution to remove all blood. Then 1 g liver sample was homogenized in 4 ml ice-cold potassium phosphate buffer (0.1 M, pH 7.4) with an Ultra-Turrax homogenizer (setting 11 000 rpm, 4×10 s). After centrifugation at 500 g for 10 min at 4° C. the supernatant was carefully withdrawn and was centrifuged at 12 300 g for 15 min at 4° C. The supernatant was discharged and sedimented mitochondria were resuspended in 4 ml fresh phosphate buffer and centrifuged as previously. The mitochondria were suspended in 4 ml phosphate buffer and homogenized with an Ultra-Turrax homogenizer (setting 11 000 rpm, 2×10 s). Mitochondrial preparate was aliquoted and stored at −70° C. Total MAO activity was measured in a similar way as for VAP-1 SSAO except that SSAO enzyme was replaced by MAO enzyme. To each well was added a predetermined amount of inhibitor if required. The amount of inhibitor varied in each assay but was generally at a final concentration of between 10 nM and 800 μM. Controls lacked inhibitor. The inhibitor was in a total volume of 20 μl in water. The following reagents were then added. 0.2 M potassium phosphate buffer pH 7.6 for a total reaction volume of 200 μl, 50 μl of freshly made chromogenic solution (as above) and 50 μl of MAO preparation (or needed amount of MAO). The plates were incubated for 30 min at 37° C. and the background absorbance measured at 490 nm using a Wallac Victor II multilabel counter. To initiate the enzyme reaction 20 μl of 5 mM tyramine (final concentration 0.5 mM) was added and the plate incubated for 1 h at 37° C. The increase in absorbance, reflecting MAO activity, was measured at 490 nm. Inhibition was presented as percent inhibition compared to control after correcting for background absorbance and IC50 values calculated using GraphPad Prism. Clorgyline and pargyline (inhibitors of MAO-A and -B respectively) at 0.5 μM were added to some wells as positive controls for MAO inhibition.

IC50 [1] | melting point | Structure (SMILES) | Total MAO Inhibitory activity (%) (Total MAO; at 100 μM) | Total MAO Inhibitory activity (%) (Total MAO; at 250 μM) | Total MAO Inhibitory activity (%) (Total MAO; at 50 μM)
720 nM | 192 to 193 °C | O=c1cc(NCc2ccccc2)c(-c2nc[nH]n2)nn1-c1ccccc1 [Compound 42, 5-benzylamino-2-phenyl-6-(1H-1,2,4-triazol-3-yl)-3(2H)-pyridazinone] | 2% | – | –
280 nM | 240 to 242 °C | O=c1cc(Nc2ccc(N3CCCCC3)cc2)c(-c2nc[nH]n2)nn1-c1ccc(Cl)cc1 [Compound 62] | – | 21% | –
340 nM | 262 to 264 °C | O=c1cc(Oc2ccccc2)c(-c2nc[nH]n2)nn1-c1cccc(F)c1 [Compound 46] | 9% | – | –
3500 nM | 172 to 174 °C | O=c1cc(Nc2cccnc2)c(-c2nc[nH]n2)nn1-c1ccccc1 [Compound 52] | 9% | – | –
16000 nM | 195 to 197 °C | CCOc1cc(=O)n(-c2ccccc2)nc1-c1nc[nH]n1 [Compound 36] | 3% | – | –
44 nM | 251 to 252 °C | COc1ccc(Nc2cc(=O)n(-c3ccc(Cl)cc3)nc2-c2nc[nH]n2)cc1 [Compound 57, 2-(4-chlorophenyl)-5-[(4-methoxyphenyl)amino]-6-(1H-1,2,4-triazol-3-yl)-3(2H)-pyridazinone] | 5% | – | –
220 nM | 252 to 254 °C | C#CCNc1cc(=O)n(-c2ccc(Cl)cc2)nc1-c1nc[nH]n1 [Compound 75] | – | – | 0%
300 nM | 238 to 241 °C | COc1cc(Nc2cc(=O)n(-c3ccc(Cl)cc3)nc2-c2nc[nH]n2)cc(OC)c1OC [Compound 61] | – | 17% | –
73 nM | 176 to 177 °C | C#CCCNc1cc(=O)n(-c2ccc(Cl)cc2)nc1-c1nc[nH]n1 [Compound 83] | – | – | 0%
2200 nM | 172 to 175 °C | C=CCOc1cc(=O)n(-c2ccc(Cl)cc2)nc1-c1nc[nH]n1 [Compound 73] | – | – | 0%
236000 nM | 195 to 197 °C | Cn1cc(-c2nn(-c3ccccc3)c(=O)cc2Oc2ccccc2)cn1 [Compound 17, 6-(1-methyl-1H-pyrazol-4-yl)-5-phenoxy-2-phenylpyridazin-3(2H)-one] | 22% | – | –
80 nM | 270 to 273 °C | O=c1cc(Nc2ccc3c(c2)OCO3)c(-c2nc[nH]n2)nn1-c1ccc(Cl)cc1 [Compound 59, 2-(4-chlorophenyl)-5-[(3,4-methylenedioxyphenyl)amino]-6-(1H-1,2,4-triazol-3-yl)-3(2H)-pyridazinone] | – | 14% | –
370 nM | 253 to 257 °C | COc1ccc(Oc2cc(=O)n(-c3ccccc3)nc2-c2nc[nH]n2)cc1 [Compound 14] | 0% | – | –
640 nM | 245 to 250 °C | O=c1cc(Sc2ccccc2)c(-c2nc[nH]n2)nn1-c1ccccc1 [Compound 16, 2-phenyl-5-phenylsulfanyl-6-(1H-1,2,4-triazol-3-yl)-3(2H)-pyridazinone] | 24% | – | –
78 nM | – | O=c1cc(NC2CCCCC2)c(-c2nc[nH]n2)nn1-c1ccccc1 [Compound 43, 5-cyclohexylamino-2-phenyl-6-(1H-1,2,4-triazol-3-yl)-3(2H)-pyridazinone] | 5% | – | –
1600 nM | 275 to 276 °C | O=c1cc(Oc2ccccc2)c(-c2nc[nH]n2)cn1-c1ccccc1 [Compound 34, 4-phenoxy-5-(1H-1,2,4-triazol-3-yl)-1-phenylpyridin-2(1H)-one] | 24% | – | –
100 nM | 248 to 250 °C | O=c1cc(Nc2ccc(N3CCOCC3)cc2)c(-c2nc[nH]n2)nn1-c1ccc(Cl)cc1 [Compound 74] | – | – | 0%
2000 nM | 253 to 254 °C | COc1cccc(-n2nc(-c3nc[nH]n3)c(Oc3ccccc3)cc2=O)c1 [Compound 27] | 3% | – | –
140 nM | 212 to 215 °C | C=CCNc1cc(=O)n(-c2ccc(Cl)cc2)nc1-c1nc[nH]n1 [Compound 70] | – | – | 18%
350 nM | 246 to 247 °C | O=c1cc(Oc2ccccc2)c(-c2nc[nH]n2)nn1-c1ccc(Cl)cc1 [Compound 25] | 0% | – | –
350 nM | 248 to 251 °C | O=c1cc(Nc2ccc(N3CCN(Cc4ccccc4)CC3)cc2)c(-c2nc[nH]n2)nn1-c1ccc(Cl)cc1 [Compound 77] | – | – | 24%
63 nM | 276 to 279 °C | CN(C)c1ccc(Nc2cc(=O)n(-c3ccc(Cl)cc3)nc2-c2nc[nH]n2)cc1 [Compound 65] | – | 8% | –
~60000 nM | 146 to 148 °C | O=c1cc(Oc2ccccc2)c(-c2ccc(F)cc2)nn1-c1ccccc1 [Compound 22] | 0% | – | –
170 nM | 255 to 257 °C | O=c1cc(NCC2CC2)c(-c2nc[nH]n2)nn1-c1ccc(Cl)cc1 [Compound 71] | – | – | 16%
270 nM | 203 to 205 °C | CC(C)Nc1cc(=O)n(-c2ccccc2)nc1-c1nc[nH]n1 [Compound 29, 5-isopropylamino-2-phenyl-6-(1H-1,2,4-triazol-3-yl)-3(2H)-pyridazinone] | 9% | – | –
3600 nM | 245 to 247 °C | CNc1cc(=O)n(-c2ccccc2)nc1-c1nc[nH]n1 [Compound 28] | 10% | – | –
